Values of other authors, collected in patent US20250089716A1, “IMMEDIATE-RELEASE PESTICIDE FORMULATION” (priority 2022, published 2025).

Conditions: extender component; unit not given

Row | Molecule | Water solubility [g/100 ml]
1 | [Cl-].[K+] [Potassium chloride] | 34
2 | OC[C@@H](O)[C@@H](O)[C@H](O)[C@@H](O)CO [Sorbitol] | 235
3 | OC[C@H]1O[C@@](CO)(O[C@H]2O[C@H](CO)[C@@H](O)[C@H](O)[C@H]2O)[C@@H](O)[C@@H]1O [Sucrose] | 202
4 | NC(N)=O [Urea] | 100
5 | O=C[C@H](O)[C@@H](O)[C@H](O)CO [Xylose] | 133
6 | [Cl-].[Cl-].[Zn+2] [Zinc chloride] | 395
7 | Flactose | 375
